Each structure is given as a SMILES string.

Sequence of human P2X3 receptor (P56373 whole entry): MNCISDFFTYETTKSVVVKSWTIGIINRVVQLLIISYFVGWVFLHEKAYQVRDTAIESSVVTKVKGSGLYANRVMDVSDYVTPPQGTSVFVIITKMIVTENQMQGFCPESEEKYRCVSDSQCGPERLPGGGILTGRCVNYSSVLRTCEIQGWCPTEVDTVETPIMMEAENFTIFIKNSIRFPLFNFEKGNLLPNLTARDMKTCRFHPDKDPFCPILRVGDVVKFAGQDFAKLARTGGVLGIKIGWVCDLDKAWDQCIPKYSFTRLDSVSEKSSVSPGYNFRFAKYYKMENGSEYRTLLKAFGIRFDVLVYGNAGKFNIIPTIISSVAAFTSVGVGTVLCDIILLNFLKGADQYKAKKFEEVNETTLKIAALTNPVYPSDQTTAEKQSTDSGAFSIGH

The experiment concerns the target human P2X3 receptor (Homo sapiens (Human), UniProt P56373). In words: P2X3 receptor inhibition, ATP-evoked Fluo-3 fluorescence (FDSS 3000). Type of experiment: cell-based. The conditions noted are these: C6BU-1 cell transfected with human P2X3 receptor gene.
`CC(C)Oc1ccc(/N=c2\[nH]c(=O)n(CC(C)(C)C(=O)O)c(=O)n2CC2CCCC2)cc1Cl` [I-554]: the half-maximal inhibitory concentration (IC50) (in general, the concentration at which inhibition is half-maximal) amounted to 139 nM. Take `COC(=O)[C@@H](C)Cn1c(=O)[nH]/c(=N\c2ccc(OC(C)C)c(C)c2)n(CC2CCCCC2)c1=O` [I-555]: 13 nM corresponded to half-maximal inhibition (IC50).

Consider `COC(=O)C[C@@H](C)n1c(=O)[nH]/c(=N\c2ccc(OC(C)C)c(Cl)c2)n(Cc2ccc(Cl)cc2)c1=O` [I-556], for which the midpoint of inhibition, the IC50, lay at 5 nM. `COC(=O)C[C@@H](C)n1c(=O)[nH]/c(=N\c2ccc(OC(C)C)c(C)c2)n(Cc2ccc(Cl)cc2)c1=O` [I-557] showed an IC50 of 19 nM. With `COC(=O)[C@H](C)Cn1c(=O)[nH]/c(=N\c2ccc3oc(C)cc3c2)n(Cc2ccc(Cl)cc2)c1=O` [I-558] the figure was 5 nM; with `Cc1cc(/N=c2\[nH]c(=O)n(C[C@H](C)C(=O)O)c(=O)n2CC2CCCCC2)ccc1OC(C)C` [I-559], 97 nM; with `COC(=O)C[C@@H](C)n1c(=O)[nH]/c(=N\c2ccc(OC(C)C)c(F)c2)n(Cc2ccc(Cl)cc2)c1=O` [I-560], 7 nM. `CC(C)Oc1ccc(/N=c2\[nH]c(=O)n([C@H](C)CC(=O)O)c(=O)n2Cc2ccc(Cl)cc2)cc1Cl` [I-561] showed a half-maximal inhibitory concentration (IC50) of 8 nM. With `CC(C)Oc1ccc(/N=c2\[nH]c(=O)n([C@H](C)CC(=O)O)c(=O)n2Cc2ccc(Cl)cc2)cc1F` [I-562], the half-maximal inhibitory concentration (IC50) stood at 27 nM. `Cc1cc(/N=c2\[nH]c(=O)n([C@H](C)CC(=O)O)c(=O)n2Cc2ccc(Cl)cc2)ccc1OC(C)C` [I-563]: the IC50 stood at 40 nM.

The molecule `Cc1cc2cc(/N=c3\[nH]c(=O)n(C[C@@H](C)C(=O)O)c(=O)n3Cc3ccc(Cl)cc3)ccc2o1` [I-564] showed an IC50 of 48 nM. `CC(C)Oc1ccc(Nc2nc(OCCO)nc(=O)n2Cc2ccc(Cl)cc2)cc1F` [II-002] gave a half-maximal inhibitory concentration (IC50) of 79 nM. The value for `CC(C)Oc1ccc(Nc2nc(OCC(CO)CO)nc(=O)n2Cc2ccc(Cl)cc2)cc1F` [II-008] was 943 nM. `CC(C)Oc1ccc(/N=c2\[nH]c(OCC(=O)O)nc(=O)n2Cc2ccc(Cl)cc2)cc1Cl` [II-009] yielded an IC50 of 34 nM.

Molecule `CC(C)Oc1ccc(/N=c2\[nH]c(OCC(C)(C)C(=O)O)nc(=O)n2Cc2ccc(Cl)cc2)cc1Cl` [II-010] displayed a half-inhibitory concentration (IC50) of 349 nM.

In the case of `CC(C)Oc1ccc(/N=c2\[nH]c(N3CCCC3=O)nc(=O)n2Cc2ccc(Cl)cc2)cc1Cl` [II-012], inhibition was half-maximal at 568 nM (IC50). The value for `CCN(CC)c1nc(=O)n(Cc2ccc(Cl)cc2)/c(=N/c2ccc(OC(C)C)c(Cl)c2)[nH]1` [II-013] was 430 nM. The molecule `CCOc1nc(=O)n(Cc2ccc(Cl)cc2)/c(=N/c2ccc(OC(C)C)c(Cl)c2)[nH]1` [II-014] came in with a half-maximal inhibitory concentration (IC50) of 254 nM.
